Measurements: patent US11091463B2, “Amide-substituted pyridinyltriazole derivatives and uses thereof” (BAYER PHARMA AKTIENGESELLSCHAFT, priority 2016, dated 2021)

Tests used:
[1] = target: T1, human V1a receptor (Homo sapiens, UniProt P37288); assay: Cellular in vitro assay for vasopressin receptor activity, V1a receptor cell line (photoprotein luminescence); type: cell-based; details: Table 1A, compounds of the invention
T1 construct: expressed in transfected cells; host or cells: CHO K1 (ATCC), also stably transfected with a modified aequorin
Experimental: (§1) B-1. Cellular In Vitro Assay for Determining Vasopressin Receptor Activity
The identification of agonists and antagonists of the V1a and V2 vasopressin receptors from humans, rats and dogs as well as the quantification of the activity of the compounds of the invention is carried out using recombinant cell lines. These cell lines originally derive from a hamster's ovary epithelial cell (Chinese Hamster Ovary, CHO K1, ATCC: American Type Culture Collection, Manassas, Va. 20108, USA). The test cell lines constitutively express the human, rat or dog V1a or V2 receptors. In case of the Gαq-coupled V1a receptors, cells are also stably transfected with a modified form of the calcium-sensitive photoproteins aequorin (human and rat V1a) or obelin (dog V1a), which, after reconstitution with the cofactor coelenterazine, emit light when there are increases in free calcium concentrations [Rizzuto R, Simpson A W, Brini M, Pozzan T, Nature, 358, 325-327 (1992); Illarionov B A, Bondar V S, Illarionova V A, Vysotski E S, Gene, 153 (2), 273-274 (1995)]. The resulting vasopressin receptor cells react to stimulation of the recombinantly expressed V1a receptors by intracellular release of calcium ions, which can be quantified by the resulting photoprotein luminescence. The Gs-coupled V2 receptors are stably transfected into cell lines expressing the gene for firefly luciferase under control of a CRE-responsible promoter. Activation of V2 receptors induces the activation of the CRE-responsive promoter via cAMP increase, thereby inducing the expression of firefly luciferase. The light emitted by photoproteins of V1a cell lines as well as the light emitted by firefly luciferase of V2 cell lines corresponds to the activation or inhibition of the respective vasopressin receptor. The bioluminescence of the cell lines is detected using a suitable luminometer [Milligan G, Marshall F, Rees S, Trends in Pharmacological Sciences, 17, 235-237 (1996)].
Vasopressin V1a Receptor Cell Lines:
On the day before the assay, the cells are plated out in culture medium (DMEM/F12, 2% FCS, 2 mM glutamine, 10 mM HEPES, 5 μg/ml coelenterazine) in 384-well microtiter plates and kept in a cell incubator (96% humidity, 5% v/v CO2, 37° C.). On the day of the assay, test compounds in various concentrations are placed for 10 minutes in the wells of the microtiter plate before the agonist [Arg^8]-vasopressin at EC50 concentration is added. The resulting light signal is measured immediately in a luminometer.
Table 1A below lists individual IC50 values for the compounds of the invention (including racemic mixtures as well as separated enantiomers) that were obtained from cell lines transfected with the human V1a or V2 receptor: […]

[2] = target: T2, human V2 receptor (Homo sapiens, UniProt P30518); assay: Cellular in vitro assay for vasopressin receptor activity, V2 receptor cell line (CRE-luciferase); type: cell-based; details: Table 1A; compounds of the invention; CHO cell line transfected with human V2 receptor, [Arg8]-vasopressin at EC50; read-out: IC50 hV2
T2 construct: expressed in transfected cells; host or cells: CHO K1 (ATCC) line expressing firefly luciferase under a CRE-responsive promoter
Experimental: as §1
The identification of agonists and antagonists of the V1a and V2 vasopressin receptors from humans, rats and dogs as well as the quantification of the activity of the compounds of the invention is carried out using recombinant cell lines. These cell lines originally derive from a hamster's ovary epithelial cell (Chinese Hamster Ovary, CHO K1, ATCC: American Type Culture Collection, Manassas, Va. 20108, USA). The test cell lines constitutively express the human, rat or dog V1a or V2 receptors. […] The resulting vasopressin receptor cells react to stimulation of the recombinantly expressed V1a receptors by intracellular release of calcium ions, which can be quantified by the resulting photoprotein luminescence. […] The bioluminescence of the cell lines is detected using a suitable luminometer [Milligan G, Marshall F, Rees S, Trends in Pharmacological Sciences, 17, 235-237 (1996)]. […]
On the day before the assay, the cells are plated out in culture medium (DMEM/F12, 2% FCS, 2 mM glutamine, 10 mM HEPES) in 384-well microtiter plates and kept in a cell incubator (96% humidity, 5% v/v CO2, 37° C.). […] Upon addition of the cell lysis reagent Triton™ and the substrate luciferin, luminescence of firefly luciferase is measured in a luminometer. […]

T1 sequence (P37288 whole entry): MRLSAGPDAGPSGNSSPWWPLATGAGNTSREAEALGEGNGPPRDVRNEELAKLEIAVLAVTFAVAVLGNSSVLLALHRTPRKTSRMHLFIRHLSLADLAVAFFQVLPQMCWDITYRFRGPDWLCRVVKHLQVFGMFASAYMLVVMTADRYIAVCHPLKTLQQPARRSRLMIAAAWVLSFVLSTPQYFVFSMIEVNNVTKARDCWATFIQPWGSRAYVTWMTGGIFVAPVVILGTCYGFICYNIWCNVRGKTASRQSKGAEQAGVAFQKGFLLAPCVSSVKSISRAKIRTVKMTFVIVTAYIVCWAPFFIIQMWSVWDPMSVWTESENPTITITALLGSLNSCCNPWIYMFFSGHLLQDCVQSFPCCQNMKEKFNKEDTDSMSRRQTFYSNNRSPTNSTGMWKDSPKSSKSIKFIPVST
T2 sequence (P30518 whole entry): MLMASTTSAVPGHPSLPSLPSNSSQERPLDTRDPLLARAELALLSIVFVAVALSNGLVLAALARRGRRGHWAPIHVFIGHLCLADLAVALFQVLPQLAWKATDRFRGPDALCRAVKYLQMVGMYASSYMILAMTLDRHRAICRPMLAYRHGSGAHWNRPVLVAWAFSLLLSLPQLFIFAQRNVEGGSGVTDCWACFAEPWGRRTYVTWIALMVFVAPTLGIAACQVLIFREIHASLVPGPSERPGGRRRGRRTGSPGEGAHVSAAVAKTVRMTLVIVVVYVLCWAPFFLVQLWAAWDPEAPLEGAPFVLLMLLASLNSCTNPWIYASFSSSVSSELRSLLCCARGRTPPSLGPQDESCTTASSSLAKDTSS

IC50 ([1]; CHO cell line transfected with human V1a receptor, [Arg8]-vasopressin at EC50, read-out: IC50 hV1a): 0.0053 µM
ratio IC50 hV2/hV1a ([1]; selectivity ratio): 66.0
IC50 [2]: 0.35 µM
Structure (SMILES): NC(=O)c1nc(Cn2nc(-c3ccc(Cl)cc3)n(CC(=O)C(F)(F)F)c2=O)nn1-c1ncccc1C(F)(F)F [Example 17, 3-{[3-(4-Chlorophenyl)-5-oxo-4-(3,3,3-trifluoro-2-oxopropyl)-4,5-dihydro-1H-1,2,4-triazol-1-yl]methyl}-1-[3-(trifluoromethyl)pyridin-2-yl]-1H-1,2,4-triazole-5-carboxamide (ketone form) or 3-{[3-(4-Chlorophenyl)-5-oxo-4-(3,3,3-trifluoro-2,2-dihydroxypropyl)-4,5-dihydro-1H-1,2,4-triazol-1-yl]methyl}-1-[3-(trifluoromethyl)pyridin-2-yl]-1H-1,2,4-triazole-5-carboxamide (hydrate form)]
